# Test results as given in patent US11559498B2, “Compositions and methods for in vivo lung and blood SNO repletion” (UNIVERSITY HOSPITALS CLEVELAND MEDICAL CENTER, priority 2020, dated 2023).
# Experiments:
# [1] = cited from earlier work
# SNO-Hb and muscle StO2 = test: Hypoxic humans dosed with ENO: muscle oxygenation and SNO-Hb; format: in vivo; conditions: at study completion, FiO2 fixed at 0.12, FIG. 2
# Excerpt: (§1) 3. Humans Each subject was fitted with an on-demand nonrebreather mask to regulate oxygen (FiO2) and ENO delivery. ENO was blended at 1-100 ppm.
# (§2) Photolysis-chemiluminescence was used to quantify RBC SNO-Hb levels before and during ENO exposure. Blood was obtained through arterial lines and venipuncture. Method of sample preparation and measurement is as described in Hausladen (ref: Hausladen A et al. Assessment of nitric oxide signals by triiodide chemiluminescence. Proc. Natl. Acad. Sci. U.S.A 104, 2157-2162 (2007)).
# SNO-Hb = SNO-Hb levels in the blood of humans after inhalation of ENO; format: in vivo; conditions: FIG. 1B
# Excerpt: as §1, §2
# isolated human kidneys = test: Isolated human kidneys treated with ENO
# GSNO levels in the lungs = GSNO levels in the lungs after inhalation of ENO; format: in vivo; conditions: FIG. 1A
# Excerpt: (§3) 1. Mice are either placed in chambers where ambient oxygen and ENO levels (1-100 ppm) are controlled, or mice are ventilated as in 2. below.
# (§4) 2. Large animals (pigs/dogs) are ventilated. ENO was mixed into the ventilation circuit using a custom-made gas-blending device (1-100 ppm). One hundred ppm ENO was selected as the maximum dose based on the amounts of metHb (<5%).
# as §1
# [2] = metHb during ventilation with ENO; format: in vivo, pigs/dogs; conditions: 100 ppm ENO (maximum dose), ventilated large animals
# Excerpt: as §4
# lung inflammation (BALF) = test: Hyperoxic injury-induced lung inflammation in mice; format: in vivo
# Protocol: as §3
# Bronchoalveolar lavage fluid (BAL), cell and protein content, differential cell analysis, lung fixation and histological sectioning, were performed as previously described (Groves, Am. J. Respir Cell Mol. Biol. 47, 776-783 (2012); Lien Van Hoecke J Vis Exp. 2017; (123): 55398)).
# [3] = test system: airway hyper-responsiveness; test: Mouse airway hyper-responsiveness following hyperoxia; format: in vivo; conditions: hyperoxia 60% oxygen for 21 days, FIG. 6
# [4] = test system: porcine circovirus type 2 (PCV2); test: PCV2 infection and replication; format: cell-based
# lung injury = test: Rat ischemia/reperfusion (IR) preparation, lung injury; format: in vivo
smiles,measurement,setting,value
CC(=O)N[C@@H](CS)C(=O)O [N-acetylcysteine],solubility in chloroform and ether,[1]; chloroform and ether,practically insoluble
same,solubility in water and alcohol,[1]; water and alcohol,soluble
"CCON=O [ENO, ethyl nitrite]",SNO-Hb levels,SNO-Hb and muscle StO2,doubled
same,muscle StO2 (near infrared spectroscopy),SNO-Hb and muscle StO2,at normoxic (prehypoxic) levels
same,SNO-Hb levels in the blood,SNO-Hb,significantly increases
same,tissue SNO levels,isolated human kidneys; FIG. 4A,increased
same,release of IL-10,isolated human kidneys; FIG. 4B,increased
same,level of IL-10,isolated human kidneys; FIG. 4C,increased
same,GSNO levels in the lungs over inhaled NO,GSNO levels in the lungs; inhalation of ENO compared with inhaled NO,several fold
same,GSNO levels in the lungs,GSNO levels in the lungs; inhalation of ENO,significantly increases
same,amounts of metHb,[2],< 5%
same,lung (BALF) leukocyte concentrations,"lung inflammation (BALF); ENO for 8 days, FIG. 3A",decreased
same,lung (BALF) neutrophil concentrations,"lung inflammation (BALF); ENO for 8 days, FIG. 3A",decreased
same,accumulation of cytokine-induced neutrophil chemoattractant-1,lung inflammation (BALF); FIG. 3B,attenuated
same,expression of cytokine-induced neutrophil chemoattractant-1,lung inflammation (BALF); FIG. 3C,attenuated
Cc1cc(C(N)=O)ccc1-n1c(CCC(=O)O)ccc1-c1ccc(-n2ccnc2)cc1 [N6022],airway hyper-responsiveness,[3]; ip administration,attenuated
N[C@@H](CCC(=O)N[C@@H](CSN=O)C(=O)NCC(=O)O)C(=O)O [GSNO],airway hyper-responsiveness,[3]; inhalation,attenuated
same,infection of PCV2,[4]; FIG. 7A,significantly reduces
same,replication of PCV2,[4]; FIG. 7B,significantly reduces
same,lung injury,lung injury; FIG. 5A,significantly reduced
same,expression of iNOS,lung injury; FIG. 5B,significantly reduced
same,expression of NF-kappaB,lung injury; FIG. 5C,significantly reduced
